Here are results for 39 molecules from US12516016B2, “GPX4 inhibitors, pharmaceutical compositions thereof, and their use for treating GPX4-mediated diseases” (EUBULUS BIOTHERAPEUTICS (HONG KONG) LIMITED, priority 2020, dated 2026).

Structures are written as SMILES. Where two headings read alike, the source gives them in different places.

This experiment concerns hepatocellular carcinoma cell line Hub-7. In words: Cell proliferation assay (CELL-TITER GLO cell viability). It counts as cell-based. The settings on record: Hub-7 cells, 24 h incubation. A digest of the protocol:
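[…] cells (4,000/well) seeded overnight, then exposed 24 h to compound from 10 μM in 3-fold serial dilutions. Viability read by CELL-TITER GLO luminescence; EC50 values derived.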

[1] abbreviates: 24 h, read-out: Inhibition of Cell Proliferation EC50.
The mark [2] stands for this setting: read-out: Inhibition of Cell Proliferation EC50.

With `C#CC(=O)N(c1cccc(Cl)c1)C(C(=O)NCc1ccccc1)c1ccc(N)cc1` (stereo not shown) [A32, N-(1-(4-Aminophenyl)-2-(benzylamino)-2-oxoethyl)-N-(3-chlorophenyl)-propiolamide], the EC50 under setting [1] is no more than 100 nM.
Turning to `C#CC(=O)N(c1cccc(Cl)c1)C1(C(=O)NCc2cccc(Cl)c2)CCOCC1` [A182, N-(3-Chlorobenzyl)-4-(N-(3-chlorophenyl)propiolamido)tetrahydro-2H-pyran-4-carboxamide], the EC50 under setting [1] is no more than 100 nM.
On the same count and under the same terms, then `C#CC(=O)N(c1ccc(OC)cc1)C(C(=O)NC(C)(C)C)c1ccc(N)cc1` (stereo not shown) [A18, N-(1-(4-Aminophenyl)-2-(tert-butylamino)-2-oxoethyl)-N-(4-methoxyphenyl)-propiolamide], with 500 to 2000 nM.
The same measure, in the same setting: with `C#CC(=O)N(c1cccc(NC(C)=O)c1)C(C(=O)NCc1ccccc1)c1ccc(N)cc1` (stereo not shown) [A63, N-(3-Acetamidophenyl)-N-(1-(4-aminophenyl)-2-(benzylamino)-2-oxoethyl)-propiolamide] the figure was 2000 to 10000 nM.
For `C#CC(=O)N(c1cccc(Cl)c1)C(C(=O)NCc1ccccc1)C1CCC(C(=O)OC)CC1` (stereo not shown) [A77, Methyl 4-(2-(benzylamino)-1-(N-(3-chlorophenyl)propiolamido)-2-oxoethyl)-cyclohexane-1-carboxylate], under setting [1], the EC50 is 100 to 500 nM.
As to `O=C(CCl)N(c1ccc2c(c1)OCO2)C1(C(=O)NCc2ccccc2)CCOCC1` [C19, 4-(N-(Benzo[d][1,3]dioxol-5-yl)-2-chloroacetamido)-N-benzyltetrahydro-2H-pyran-4-carboxamide], the EC50 under setting [1] lay within 2000 to 10000 nM.
Take `C#CC(=O)N(c1cccc(C(=O)OC)c1)C(C(=O)NCc1ccccc1)c1cccs1` (stereo not shown) [A73, Methyl 3-(N-(2-(benzylamino)-2-oxo-1-(thiophen-2-yl)ethyl)propiolamido)-benzoate]: the EC50 under setting [1] is no more than 100 nM.
On to `C#CC(=O)N(c1cccc(OC)c1)C(C(=O)NCc1ccccc1)c1ccc(N)cc1` (stereo not shown) [A61, N-(1-(4-Aminophenyl)-2-(benzylamino)-2-oxoethyl)-N-(3-methoxyphenyl)-propiolamide], for which the EC50 under setting [1] is no more than 100 nM.
`C#CC(=O)N(c1ccc(C#N)cc1)C(C(=O)NCc1ccccc1)c1ccc(N)cc1` (stereo not shown) [A66, N-(1-(4-Aminophenyl)-2-(benzylamino)-2-oxoethyl)-N-(4-cyanophenyl)-propiolamide]: the EC50 under setting [1] was no more than 100 nM.
As to `C#CC(=O)N(c1cccc(Cl)c1)C(C(=O)NCc1ccccc1C#N)c1ccccc1` (stereo not shown) [A178, N-(3-Chlorophenyl)-N-(2-((2-cyanobenzyl)amino)-2-oxo-1-phenylethyl)-propiolamide], the EC50 under setting [1] is no more than 100 nM.
In the case of `C#CC(=O)N(c1ccc2c(cnn2C)c1)C1(C(=O)NCc2ccccc2)CCCC(=O)C1` (stereo not shown) [A165, N-Benzyl-1-(N-(1-methyl-1H-indazol-5-yl)propiolamido)-3-oxocyclohexane-1-carboxamide], the EC50 under setting [1] lay in the range of 100 to 500 nM.
For the molecule `C#CC(=O)N(c1cccc(Cl)c1)C1(C(=O)NCc2ccccc2)CCC(F)(F)CC1` [A103, N-Benzyl-1-(N-(3-chlorophenyl)propiolamido)-4,4-difluorocyclohexane-carboxamide], the EC50 under setting [1] is no more than 100 nM.
Turning to `C#CC(=O)N(c1ccc2[nH]ncc2c1)C1(C(=O)NCc2ccccc2)CCOCC1` [A150, 4-(N-(1H-Indazol-5-yl)propiolamido)-N-benzyltetrahydro-2H-pyran-4-carboxamide], the EC50 under setting [1] was 100 to 500 nM.
Turning to `C#CC(=O)N(c1cccc(Cl)c1)C1(C(=O)NCc2ccccc2)CCCC(C(=O)OC)C1` (stereo not shown) [A173, Methyl 3-(benzylcarbamoyl)-3-(N-(3-chlorophenyl)propiolamido)cyclohexane-carboxylate], the EC50 under setting [1] was no more than 100 nM.
Regarding `C#CC(=O)N(c1ccc(Cl)c(Cl)c1)C1(C(=O)NCc2ccccc2)CCCCC1` [A109, N-Benzyl-1-(N-(3,4-dichlorophenyl)propiolamido)cyclohexanecarboxamide], the EC50 under setting [1] lay within 100 to 500 nM.
Take `O=C(NCCc1ccccc1)C(c1ccc([N+](=O)[O-])cc1)N(Cc1cccs1)C(=O)CCl` (stereo not shown) [C8, 2-Chloro-N-(1-(4-nitrophenyl)-2-oxo-2-(phenethylamino)ethyl)-N-(thiophen-2-ylmethyl)acetamide]: under setting [1], the EC50 lay within 2000 to 10000 nM.
For `C#CC(=O)N(c1cccc(Cl)c1Cl)C(C(=O)NCc1ccccc1)c1ccccc1` (stereo not shown) [A82, N-(2-(Benzylamino)-2-oxo-1-phenylethyl)-N-(2,3-dichlorophenyl)-propiolamide], the EC50 under setting [1] was no more than 100 nM.
In the case of `C#CC(=O)N(c1ccc2c(c1)C(=O)OC2)C1(C(=O)NCc2ccccc2)CCOCC1` [A149, N-Benzyl-4-(N-(3-oxo-1,3-dihydroisobenzofuran-5-yl)propiolamido)tetrahydro-2H-pyran-4-carboxamide], the EC50 under setting [1] was no more than 100 nM.
The same measure, in the same setting: then `C#CC(=O)N(c1cccc(Cl)c1)C1(C(=O)NCC(=O)NCCO)CCOCC1` [A186, 4-(N-(3-Chlorophenyl)propiolamido)-N-(2-((2-hydroxyethyl)amino)-2-oxoethyl)-tetrahydro-2H-pyran-4-carboxamide], with 2000 to 10000 nM; and `C#CC(=O)N(c1cccc(Cl)c1)C(C(=O)NC(C)(C)C)c1cccc(N)c1` (stereo not shown) [A20, N-(1-(3-aminophenyl)-2-(tert-butylamino)-2-oxoethyl)-N-(3-chlorophenyl)propiolamide], with 100 to 500 nM.
On to `C#CC(=O)N(c1cccc(Cl)c1)C(C(=O)NC(C)(C)C)c1ccc(N)cc1` (stereo not shown) [A5, N-(1-(4-Aminophenyl)-2-(tert-butylamino)-2-oxoethyl)-N-(3-chlorophenyl)-propiolamide], for which, under setting [1], the EC50 lay within 100 to 500 nM.
For `C#CC(=O)N(c1ccc2c(cnn2C)c1)C1(C(=O)NCc2ccccc2)CCCC(C(=O)OC)C1` (stereo not shown) [A177, Methyl 3-(benzylcarbamoyl)-3-(N-(1-methyl-1H-indazol-5-yl)propiolamido)-cyclohexane-1-carboxylate], the EC50 under setting [1] was no more than 100 nM.
On the same count and under the same terms, then `C#CC(=O)N(c1cccc(S(C)(=O)=O)c1)C(C(=O)NCc1ccccc1)c1ccccc1` (stereo not shown) [A92, N-(2-(Benzylamino)-2-oxo-1-phenylethyl)-N-(3-(methylsulfonyl)-phenyl)-propiolamide], with 100 to 500 nM.
Regarding `C#CC(=O)N(c1ccc(OC)c(Cl)c1)C(C(=O)NCc1ccccc1)c1ccc(N)cc1` (stereo not shown) [A53, N-(1-(4-Aminophenyl)-2-(benzylamino)-2-oxoethyl)-N-(3-chloro-4-methoxy-phenyl)propiolamide], the EC50 under setting [1] was no more than 100 nM.
`Cn1ncc2cc(N(C(=O)CO)C3(C(=O)NCc4ccccc4)CCOCC3)ccc21` [D3, N-Benzyl-4-(2-hydroxy-N-(1-methyl-1H-indazol-5-yl)acetamido)tetrahydro-2H-pyran-4-carboxamide]: the EC50 under setting [1] was greater than 10000 nM.
As to `Cn1ncc2cc(N(C(=O)CCBr)C3(C(=O)NCc4ccccc4)CCOCC3)ccc21` [D6, N-Benzyl-4-(3-bromo-N-(1-methyl-1H-indazol-5-yl)propanamido)tetrahydro-2H-pyran-4-carboxamide], the EC50 under setting [1] was greater than 10000 nM.
With `C#CC(=O)N(c1cccc(N)c1)C(C(=O)NCc1ccccc1)c1ccc(N)cc1` (stereo not shown) [A70, N-(3-Aminophenyl)-N-(1-(4-aminophenyl)-2-(benzylamino)-2-oxoethyl)-propiolamide], the EC50 under setting [1] was 500 to 2000 nM.
With `C=CC(=O)N(C1CCC1)C1(C(=O)NCc2ccccc2)CCOCC1` [B8, N-Benzyl-4-(N-cyclobutylacrylamido)tetrahydro-2H-pyran-4-carboxamide], the EC50 under setting [1] is greater than 10000 nM.
Still for that read-out and setting: with `COc1ccc(N(C(=O)CCl)C(C(=O)NCCc2ccccc2)c2ccc(N)cc2)cc1Cl` (stereo not shown) [C3, 2-(4-aminophenyl)-2-(2-chloro-N-(3-chloro-4-methoxyphenyl)acetamido)-N-phenethylacetamide] the figure was 100 to 500 nM.
As to `COc1ccc(N(C(=O)C#CCO)C(C(=O)NCCc2ccccc2)c2cccs2)cc1Cl` (stereo not shown) [A118], under setting [2], the EC50 was 2000 to 10000 nM.
Take `C#CC(=O)N(c1ccc(OC)cc1)C(C(=O)NCc1ccccc1)c1ccc(N)cc1` (stereo not shown) [A60, N-(1-(4-Aminophenyl)-2-(benzylamino)-2-oxoethyl)-N-(4-methoxyphenyl)-propiolamide]: the EC50 under setting [1] was no more than 100 nM.
For the molecule `COc1ccc(N(C(=O)CCl)C(C(=O)NCCc2ccccc2)c2cccs2)cc1Cl` (stereo not shown) [ML-162, reference compound], the EC50 was 138 nM (control, read-out: EC50) and 100 to 500 nM under setting [2].
Turning to `C#CC(=O)N(c1ccc(C(N)=O)cc1)C(C(=O)NC(C)(C)C)c1ccc(N)cc1` (stereo not shown) [A10, 4-(N-(1-(4-Aminophenyl)-2-(tert-butylamino)-2-oxoethyl)propiolamido)-benzamide], under setting [1], the EC50 was greater than 10000 nM.
`C#CC(=O)N(c1cc(Cl)ccc1I)C(C(=O)NCc1ccccc1)c1ccccc1` (stereo not shown) [A91, N-(2-(Benzylamino)-2-oxo-1-phenylethyl)-N-(5-chloro-2-iodophenyl)-propiolamide]: the EC50 under setting [1] was no more than 100 nM.
On to `C#CC(=O)N(c1cccc2c1OCO2)C(C(=O)NCc1ccccc1)c1ccccc1` (stereo not shown) [A97, N-(Benzo[d][1,3]dioxol-4-yl)-N-(2-(benzylamino)-2-oxo-1-phenylethyl)-propiolamide], for which the EC50 under setting [1] was in the range of 100 to 500 nM.
As to `O=C(C#CCO)N(c1cc(Cl)ccc1Cl)C1(C(=O)NCc2ccccc2)CCOCC1` [A130, N-Benzyl-4-(N-(2,5-dichlorophenyl)-4-hydroxybut-2-ynamido)tetrahydro-2H-pyran-4-carboxamide], the EC50 under setting [1] was greater than 10000 nM.
Turning to `C#CC(=O)N(c1cccc(CO)c1)C(C(=O)NCc1ccccc1)c1cccc(N)c1` (stereo not shown) [A39, N-(1-(3-Aminophenyl)-2-(benzylamino)-2-oxoethyl)-N-(3-(hydroxymethyl)-phenyl)propiolamide], the EC50 under setting [1] is 2000 to 10000 nM.
With `C#CC(=O)N(c1cccc(Cl)c1)C(C(=O)NCc1ccccc1)c1cccc(N)c1` (stereo not shown) [A33, N-(1-(3-Aminophenyl)-2-(benzylamino)-2-oxoethyl)-N-(3-chlorophenyl)-propiolamide], the EC50 under setting [1] was no more than 100 nM.
In the case of `C#CC(=O)N(c1cccc(C(=O)OC)c1)C(C(=O)NC(C)(C)C)c1ccc(N)cc1` (stereo not shown) [A28, Methyl 3-(N-(1-(4-aminophenyl)-2-(tert-butylamino)-2-oxoethyl)-propiolamido)-benzoate], the EC50 under setting [2] fell in the range of 100 to 500 nM.
